Test results: patent publication US20120277257A1, “Methods of Treating Diseases, Pharmaceutical Compositions, and Pharmaceutical Dosage Forms” (MYREXIS, INC., priority 2009, published 2012)
Where two headings read alike, the source gives them in different places.

Tests used:
OPM-2 multiple myeloma = OPM-2 multiple myeloma xenograft; assay type: in vivo, mice; conditions: 200 mg/kg oral, daily for 21 days, p = 0.34
[1] = tested on: NCI-H460 non-small cell lung cancer; assay: NCI-H460 non-small cell lung cancer xenograft; assay type: in vivo, mice; conditions: 200 mg/kg oral, daily for 21 days
Hsp70 RNA = Hsp70 RNA induction in liver and tumor of N-87 xenografted mice (qRT-PCR); assay type: in vivo; conditions: single oral dose 200 mg/kg
Method: (§1) Xenografted mice bearing N-87 tumors (median volume ˜425 mm^3) were given a single oral dose of Compound 1 (200 mg/kg). Blood, tumor and liver samples (n=6) were collected at 0.25, 0.5, 1, 2, 4, 8, 12, 24, 36 and 48 h post-dose and used to determine Compound 1 concentrations in the plasma and Hsp70 RNA levels in tumor and liver samples (See FIG. 6). Hsp70 RNA levels were determined by qRT-PCR.

[2] = tested on: MV-4-11 acute myeloid leukemia; assay: MV-4-11 acute myeloid leukemia xenograft; assay type: in vivo, mice; conditions: 200 mg/kg oral, daily for 21 days
[3] = tested on: BT-474 HER2+ breast cancer; assay: BT-474 HER2+ breast cancer xenograft; assay type: in vivo, mice; conditions: 200 mg/kg oral, daily for 70 days
[4] = Plasma pharmacokinetics in N-87 tumor-bearing nude mice; assay type: in vivo; conditions: mouse, 200 mg/kg single dose, median values (n = 6)
Method: as §1

[5] = Oral pharmacokinetics in female Sprague Dawley rats, single dose versus two doses; assay type: in vivo; conditions: for Cmax / AUC(0-t) / concentration at 24 h: female, Sprague Dawley, rat, plasma; for AUC(0-t): read-out: AUC(0-24); for concentration at 24 h: read-out: C24hr
Method: Female Sprague Dawley rats (n=4 or 5) were dosed orally once with 50 mg/kg (See FIG. 9A) or twice with 25 mg/kg (See FIG. 9B) of Compound 1. Pharmacokinetic parameters are outlined in Table 4 below. […] Effective plasma concentrations of Compound 1 were maintained with twice a day dosing.

[6] = tested on: MIA PaCa-2 pancreatic cancer; assay: MIA PaCa-2 pancreatic cancer xenograft
OVCAR-3 ovarian cancer = OVCAR-3 ovarian cancer xenograft; assay type: in vivo, mice; conditions: daily for 35 days
HT-29 colon cancer = HT-29 colon cancer xenograft; assay type: in vivo, mice; conditions: 200 mg/kg oral, 5-days-on/2-days-off, after 3 cycles
in vivo = conditions: female, Hsd:athymic nude-Foxn1^nu, mouse, po
Method: The efficacy of Compound 1 was compared to that of SNX-5422 (Serenex, Pfizer, Inc.) on the growth of NCI-N87 (Her2+) human gastric cancer cells as a xenograft in athymic nude mice model. Animals were dosed with either 200 mg/kg of Compound 1 on days 1 through 21 or 40 mg/kg of SNX-5422 thrice weekly for three weeks. Tumor volumes and body weights were determined from Days 1 to 39.
Five million NCI-N87 cells were implanted subcutaneously in the right flank of female nude mice (Hsd:athymic nude-Foxn1^nu). When the median tumor volume was approximately 123 mm^3, mice were randomized into three cohorts of ten animals. One cohort was dosed orally with vehicle, one cohort was dosed orally with Compound 1 (200 mg/kg) formulated in vehicle, and one cohort was dosed orally with SNX-5422 (40 mg/kg) formulated in dimethylacetamide/polyethylene glycol 300. Vehicle and Compound 1 were administered on days 1-21 and SNX-5422 was administered thrice weekly on Days 1, 3, 5, 8, 10, 12, 15, 17 and 19. The mice were observed daily for mortality and signs of toxicity.

B16 melanoma allograft = assay: B16 melanoma allograft; assay type: in vivo, mice; conditions: 200 mg/kg oral, daily for 8 days
[7] = tested on: NCI-H69 small cell lung cancer; assay: NCI-H69 small cell lung cancer xenograft; assay type: in vivo, mice; conditions: 200 mg/kg oral, daily for 27 days
[8] = tested on: multiple murine xenograft models; assay: Murine xenograft models, summary across models; assay type: in vivo, mice
Colo205 colon cancer = Colo205 colon cancer xenograft; assay type: in vivo, mice; conditions: daily for 21 days
[9] = Phase I clinical trial, dose limiting toxicities; assay type: in vivo, human; conditions: 50 to 340 mg/m^2 oral, 1 to 13 (28-day) cycles
Method: A human clinical study was initiated at a starting dose of 50 mg/m^2. Subjects had recurrent cancer refractory to available systemic therapy. Compound 1 was administered daily by mouth in tablet form for 21 consecutive days in a 28 day cycle to each enrolled subject. For determination of drug levels in humans, plasma was collected prior to drug administration and 0.5, 1, 2, 3, 4, 6, 8, and 24 hours post-dosing on cycle 1 day 1, and cycle 1 day 21. Plasma was collected pre-dose only for cycle 1 day 8. Peripheral blood mononuclear cells (PBMCs) were collected prior to drug administration, and typically 8 and 24 hours post-dose on cycle 1 day 1 and cycle 1 day 21 in order to quantify Hsp70 protein levels as an exploratory biomarker. Patients were men and women with metastatic cancer, ranged in age from 45 to 85 years, and received doses ranging from 50 mg/m^2 to 340 mg/m^2, with a total daily dose of 100-740 mg (Tables 2A and 2B).

[10] = tested on: NCI-N87 Her2+ gastric cancer; assay: NCI-N87 (Her2+) gastric cancer xenograft in athymic nude mice; assay type: in vivo; conditions: for TGI (tumor growth inhibition): daily for 21 days
[11] = 25 mg/kg oral, two doses 12 h apart

In the case of C[C@H](O)C(=O)N1CCC(CCn2c(Sc3cc4c(cc3Br)OCO4)nc3c(N)ncnc32)CC1 [Compound 1, (2S)-1-[4-(2-{6-amino-8-[(6-bromo-1,3-benzodioxol-5-yl)thio]-9H-purin-9-yl}ethyl)piperidin-1-yl]-1-oxopropan-2-ol], the “TGI (tumor growth inhibition)” value (OPM-2 multiple myeloma) is reported as 71% TGI (p = 0.34), the “time to tumor volume 1,500 mm^3” value ([1]; p = 0.006) is reported as “extended” and the “TGI (tumor growth inhibition)” value ([1]; p = 0.05) is reported as 61%. For the same compound, the “treated mice with tumors <1,500 mm^3” value ([1]; compared to 1/10 for vehicle arm) was 4/8 treated mice have tumors, the “Hsp70 RNA induction in liver” value (Hsp70 RNA; 4 hours post-dose) was about 70 fold and the “Hsp70 RNA induction in tumor tissue” value (Hsp70 RNA; 4 hours post-dose) was about 110 fold. For the same compound, the “time at which Hsp70 RNA induction reverts to baseline” value (Hsp70 RNA; post-dose) was at most 12 h, the tumor regression [2] was 50% regression and the tumor regression [3] was 17% regression. The Cmax ([4]; oral) was 21800 ng/mL, the AUC(0-t) ([4]; oral, read-out: AUC(0-24)) was 136000 ng·h/mL and the Tmax ([4]; po) was 4 h. The half-life ([4]; po) was 4.8 h, the Cmax [5, 11] was 1110 ng/mL and the AUC(0-t) [5, 11] was 5120 ng·h/mL. For the same compound, the concentration at 24 h [5, 11] was 46.7 ng/mL, the Cmax ([5]; 50 mg/kg oral, single dose) was 2120 ng/mL and the AUC(0-t) ([5]; 50 mg/kg oral, single dose) was 5840 ng·h/mL. For the same compound, the concentration at 24 h ([5]; 50 mg/kg oral, single dose) was 1.5 ng/mL, the “plasma concentration at 24 h with BID dosing versus single dose” value ([5]; oral) was “significantly higher” and the “TGI (tumor growth inhibition)” value ([6]; 150 mg/kg oral, daily for 15 days, Day 15) was 67%. The “TGI (tumor growth inhibition)” value ([6]; 150 mg/kg oral, daily for 21 days (Table 1)) was 67%, the “TGI (tumor growth inhibition)” value ([6]; 200 mg/kg oral, daily for 15 days, Day 15) was 95% and the “TGI (tumor growth inhibition)” value ([6]; 200 mg/kg oral, daily for 21 days (Table 1)) was 95%. For the same compound, the “TGI (tumor growth inhibition)” value (OVCAR-3 ovarian cancer; 150 mg/kg oral) was 84%, the “TGI (tumor growth inhibition)” value (OVCAR-3 ovarian cancer; 200 mg/kg oral) was 97% and the “TGI (tumor growth inhibition)” value (HT-29 colon cancer) was 68% TGI after 3 cycles. The MTD (in vivo) was 200 mg/kg, the “TGI (tumor growth inhibition)” value (B16 melanoma allograft) was 50% TGI and the “time to tumor volume 1,500 mm^3” value ([7]; p = 0.01) was “Extended time to 1,500 mm^3”. The “treated mice with tumors <1,500 mm^3” value ([7]; compared to 2/9 for vehicle arm) was “(p = 0.01); 8/10 treated mice”, the “tumor regression, maximum over models” value ([8]; 200 mg/kg oral, various xenograft models) was “up to 50%” and the “weight loss of animals” value ([8]; xenografted mice dosed orally with Compound 1) was “no significant weight loss”. The “TGI (tumor growth inhibition)” value (Colo205 colon cancer; 150 mg/kg oral, p = 0.3) was 72% TGI (p = 0.3) 150 mg/kg;, the “TGI (tumor growth inhibition)” value (Colo205 colon cancer; 200 mg/kg oral, p = 0.03) was 87% TGI (p = 0.03) 200 mg/kg and the dose limiting toxicities [9] was “No dose limiting toxicities have been reported to date”. For the same compound, the “TGI (tumor growth inhibition)” value ([10]; 100 mg/kg oral, Day 21, p = 0.003) was 82% TGI (p = 0.003) Day 21, the “TGI (tumor growth inhibition)” value ([10]; 125 mg/kg oral) was 100% TGI (125 mg/kg) and the tumor regression ([10]; 200 mg/kg oral, daily for 21 days (50, 75, 125, 200 mg/kg study)) was 50% regression (200 mg/kg);.
